Legend:
[1] = Permeability of the compound at pH 5.5 measured for 4 hrs by UV plate reader based PAMPA assay; type: ADME; details: read-out: permeability
[2] = Permeability of the compound at pH 7.4 measured for 4 hrs by UV plate reader based PAMPA assay; type: ADME; details: read-out: permeability
[3] = Cmax in C57BL6 mouse at 10 mg/kg, po measured upto 24 hrs by LC-MS/MS analysis; type: ADME, organism-based; design: time < 24 hrs, dose 10 mg/kg, route po; details: in vivo
[4] = AUC (0 to 24 hrs) in C57BL6 mouse at 10 mg/kg, po measured upto 24 hrs by LC-MS/MS analysis; type: ADME, organism-based; design: dose 10 mg/kg, time < 24 hrs, route po; details: in vivo
[5] = Metabolic stability of the compound in rat liver microsomes assessed as CYP450-mediated metabolism by measuring parent compound remaining at 0.5 uM measured after 10 mins in presence of NADPH by LC-MS/MS analysis; type: ADME, Microsome; details: read-out: Stability
[6] = Metabolic stability of the compound in mouse liver microsomes assessed as CYP450-mediated metabolism by measuring parent compound remaining at 0.5 uM measured after 10 mins in presence of NADPH by LC-MS/MS analysis; type: ADME, Microsome; details: read-out: Stability
[7] = Clearance in C57BL6 mouse at 2 mg/kg, iv measured upto 24 hrs by LC-MS/MS analysis; type: ADME, organism-based; details: in vivo
[8] = Volume of distribution at steady state in C57BL6 mouse at 2 mg/kg, iv measured upto 24 hrs by LC-MS/MS analysis; type: ADME, organism-based; details: in vivo, read-out: Vdss
[9] = Oral bioavailability in C57BL6 mouse at 10 mg/kg measured upto 24 hrs by LC-MS/MS analysis; type: ADME, organism-based; details: in vivo

SMILES	Papp at 4 h [1] [×10⁻⁶ cm/s]	Papp at 4 h [2] [×10⁻⁶ cm/s]	further results
COc1ccc(Cl)cc1-n1nc(C)nc1[C@@H]1O[C@H](CO)[C@H](O)[C@H](n2cc(-c3cc(F)c(F)c(F)c3)nn2)[C@H]1O	15.7	14	
Cc1nc([C@@H]2O[C@H](CO)[C@H](O)[C@H](n3cc(-c4ccc(Cl)c(F)c4F)nn3)[C@H]2O)n(-c2cc(Cl)ccc2C(F)(F)F)n1			Cmax [3]: 3.6 µM; AUC(0-t) at 24 h [4]: 37 µM·h
Cc1nc([C@@H]2O[C@H](CO)[C@H](O)[C@H](n3cc(-c4cc(F)c(F)c(F)c4)nn3)[C@H]2O)n(-c2cc(Cl)ccc2Br)n1	14.5	14.8	
Cc1nc([C@@H]2O[C@H](CO)[C@H](O)[C@H](n3cc(-c4cc(F)c(F)c(F)c4)nn3)[C@H]2O)n(-c2cc(Cl)ccc2F)n1	12.7	12.5	
Cc1nc([C@@H]2O[C@H](CO)[C@H](O)[C@H](n3cc(-c4cc(F)c(Cl)c(F)c4)nn3)[C@H]2O)n(-c2cc(Cl)ccc2C(F)(F)F)n1			remaining at 10 min, 0.5 µM [5]: 91%; remaining at 10 min, 0.5 µM [6]: 85%; Cmax [3]: 5 µM; AUC(0-t) at 24 h [4]: 40 µM·h; clearance [7]: 7 mL/min/kg; Vd [8]: 1.7 L/kg; bioavailability [9]: 100%
Cc1nc([C@@H]2O[C@H](CO)[C@H](O)[C@H](n3cc(-c4ccc(Br)c(F)c4F)nn3)[C@H]2O)n(-c2cc(Cl)ccc2C(F)(F)F)n1			Cmax [3]: 5 µM; AUC(0-t) at 24 h [4]: 40 µM·h; clearance [7]: 2.7 mL/min/kg; Vd [8]: 2.4 L/kg; bioavailability [9]: 40%
OC[C@H]1O[C@@H](n2nncc2-c2cccc(Cl)c2)[C@H](O)[C@@H](n2cc(-c3cc(F)c(F)c(F)c3)nn2)[C@H]1O	3.1	3.3	
OC[C@H]1O[C@@H](c2nncn2-c2cccc(Cl)c2)[C@H](O)[C@@H](n2cc(-c3cc(F)c(F)c(F)c3)nn2)[C@H]1O		0.6	
Cc1nc([C@@H]2O[C@H](CO)[C@H](O)[C@H](n3cc(-c4cc(F)c(F)c(F)c4)nn3)[C@H]2O)n(-c2ccc(Cl)c(Cl)c2)n1	44.4	45.6	
Cc1nc([C@@H]2O[C@H](CO)[C@H](O)[C@H](n3cc(-c4cc(F)c(F)c(F)c4)nn3)[C@H]2O)n(-c2cc(Cl)cc(Cl)c2)n1	10.8	12.5	
Cc1nc([C@@H]2O[C@H](CO)[C@H](O)[C@H](n3cc(-c4cc(F)c(F)c(F)c4)nn3)[C@H]2O)n(-c2cc(Cl)ccc2C)n1	15	18.1	
OC[C@H]1O[C@@H](c2ncnn2-c2cccc(Cl)c2)[C@H](O)[C@@H](n2cc(-c3cc(F)c(F)c(F)c3)nn2)[C@H]1O		20.3	
Cc1nc([C@@H]2O[C@H](CO)[C@H](O)[C@H](n3cc(-c4cc(F)c(F)c(F)c4)nn3)[C@H]2O)n(-c2cccc(Cl)c2Cl)n1	42.3	45.2	
Cc1nc([C@@H]2O[C@H](CO)[C@H](O)[C@H](n3cc(-c4cc(F)c(F)c(F)c4)nn3)[C@H]2O)n(-c2cccc(Cl)c2)n1	36.3	34.5	
OC[C@H]1O[C@@H](n2nncc2-c2ccc(Cl)c(Cl)c2)[C@H](O)[C@@H](n2cc(-c3cc(F)c(F)c(F)c3)nn2)[C@H]1O		7	
Cc1nc([C@@H]2O[C@H](CO)[C@H](O)[C@H](n3cc(-c4cc(F)c(F)c(F)c4)nn3)[C@H]2O)n(-c2cc(Cl)ccc2C(F)(F)F)n1	51.1	36.9	
Cc1nc([C@@H]2O[C@H](CO)[C@H](O)[C@H](n3cc(-c4cc(F)c(F)c(F)c4)nn3)[C@H]2O)n(-c2cc(Cl)ccc2Cl)n1	24.7	30.4	

Source: ChEMBL document CHEMBL5120969, “Identification of Monosaccharide Derivatives as Potent, Selective, and Orally Bioavailable Inhibitors of Human and Mouse Galectin-3” (J Med Chem, 2022)
